Measured values reported in the NIST ThermoML archive (doi:10.1021/je700619q).
Numbers after ± are expanded uncertainties.

Tests used:
[1] = Boiling temperature at pressure P; details: 101 kPa; Liquid; Distillation
[2] = 101 kPa, Liquid
[3] = xn = mol fraction of the nth substance listed; details: 101 kPa, Liquid

CCCCCCCCCCO [decan-1-ol]
Details	Boiling temperature at pressure P [°C]
[1]	229.80 ± 0.2

[2]
Details	mass density [kg/m3]	speed of sound [m/s]	viscosity [mPa·s]
293 K	830.1 ± 5.9	1408 ± 22	13.41 ± 0.96
303 K	822.1 ± 6.6	1375.2 ± 22	9.262 ± 0.7
313 K	815.7 ± 7.2	1344.8 ± 22	6.515 ± 0.53

CCCCCCCCCCO [decan-1-ol] + CCNCC
[3], x2 = 0
Details	mass density [kg/m3]	speed of sound [m/s]	viscosity [mPa·s]
293 K	830.1 ± 5.9	1408 ± 22	13.41 ± 0.96
303 K	822.1 ± 6.6	1375.2 ± 22	9.262 ± 0.7
313 K	815.7 ± 7.2	1344.8 ± 22	6.515 ± 0.53

CCNCC [diethylamine]
Details	Boiling temperature at pressure P [°C]
[1]	55.30 ± 0.2

[2]
Details	mass density [kg/m3]	speed of sound [m/s]	viscosity [mPa·s]
293 K	707.6 ± 4.7	1140.8 ± 19	0.3212 ± 0.04
303 K	693.6 ± 5.3	1089.6 ± 18	0.275 ± 0.036
313 K	678.4 ± 5.8	1045 ± 18	0.2577 ± 0.035

CCNCC [diethylamine] + CCCCCCCCCCO
[3]
Details	mass density, 293 K [kg/m3]	mass density, 303 K [kg/m3]	mass density, 313 K [kg/m3]	speed of sound, 293 K [m/s]	speed of sound, 303 K [m/s]	speed of sound, 313 K [m/s]	viscosity, 293 K [mPa·s]	viscosity, 303 K [mPa·s]	viscosity, 313 K [mPa·s]
x1 = 0.0989	828.2 ± 5.9	820.7 ± 6.5	811.5 ± 7.2	1383.2 ± 22	1372.4 ± 22	1332.8 ± 22	11.04 ± 0.81	7.825 ± 0.61	5.532 ± 0.47
x1 = 0.1963	824.8 ± 5.8	814.6 ± 6.5	806.3 ± 7.1	1352 ± 22	1350 ± 22	1326 ± 21	8.974 ± 0.68	6.352 ± 0.52	4.522 ± 0.4
x1 = 0.3062	818.1 ± 5.8	810 ± 6.4	803.7 ± 7.1	1347.2 ± 22	1340 ± 22	1316 ± 21	7.105 ± 0.57	4.977 ± 0.43	3.558 ± 0.32
x1 = 0.4062	814.4 ± 5.7	808.4 ± 6.4	802.1 ± 7.1	1333.6 ± 22	1326 ± 21	1297.2 ± 21	5.423 ± 0.46	3.524 ± 0.31	2.793 ± 0.25
x1 = 0.4898	799 ± 5.6	794.2 ± 6.3	788.9 ± 7	1321.8 ± 21	1314 ± 21	1290.8 ± 21	3.948 ± 0.35	2.857 ± 0.26	2.244 ± 0.21
x1 = 0.5973	795.6 ± 5.5	790.7 ± 6.2	782.9 ± 6.9	1310.4 ± 21	1302.4 ± 21	1274.8 ± 21	2.609 ± 0.24	2.015 ± 0.19	1.631 ± 0.15
x1 = 0.6708	785.4 ± 5.4	779.9 ± 6.1	773.7 ± 6.8	1302.4 ± 21	1295.6 ± 21	1258.4 ± 21	1.925 ± 0.18	1.652 ± 0.15	1.257 ± 0.12
x1 = 0.7388	779.4 ± 5.4	773.3 ± 6.1	769.7 ± 6.8	1293.6 ± 21	1278.8 ± 21	1238.4 ± 20	1.43 ± 0.14	1.253 ± 0.12	0.9795 ± 0.097
x1 = 0.8012	770.2 ± 5.3	763.6 ± 6	755.5 ± 6.6	1288.8 ± 21	1266.4 ± 21	1212 ± 20	1.067 ± 0.1	0.9298 ± 0.093	0.7247 ± 0.075
x1 = 0.8562	759.5 ± 5.2	753.7 ± 5.9	745.6 ± 6.5	1247.2 ± 20	1216.8 ± 20	1164.8 ± 19	0.7924 ± 0.081	0.689 ± 0.072	0.5424 ± 0.059
x1 = 0.9031	741.4 ± 5	737.6 ± 5.7	728.2 ± 6.3	1211.2 ± 20	1176 ± 20	1123.2 ± 19	0.6052 ± 0.065	0.5352 ± 0.059	0.4368 ± 0.05
x1 = 0.9601	720.7 ± 4.8	709.2 ± 5.4	694.8 ± 6	1173.2 ± 20	1130.4 ± 19	1082 ± 18	0.4396 ± 0.051	0.3609 ± 0.044	0.3265 ± 0.041
x1 = 1	707.6 ± 4.7	693.6 ± 5.3	678.4 ± 5.8	1140.8 ± 19	1089.6 ± 18	1045 ± 18	0.3212 ± 0.04	0.275 ± 0.036	0.2577 ± 0.035
